Assays:
Type in all cases: in vivo
[1] = test system: durum wheat (Triticum durum L; TRZDU); test: Postemergence herbicidal safening in cereal crops, greenhouse, visual injury: durum wheat; conditions: 20-22 d
Method: (§1) Evaluation of Postemergence Herbicidal Safening in Cereal Crops
(§2) Seeds of the desired test plant species were planted in Sun Gro MetroMix® 306 planting mixture, which typically has a pH of 6.0 to 6.8 and an organic matter content of about 30 percent, in plastic pots with a surface area of 103.2 square centimeters (cm^2). When required to ensure good germination and healthy plants, a fungicide treatment and/or other chemical or physical treatment was applied. The plants were grown for 7-36 days (d) in a greenhouse with an approximate 14-hour (h) photoperiod which was maintained at about 18° C. during the day and 17° C. during the night. Nutrients and water were added on a regular basis and supplemental lighting was provided with overhead metal halide 1000-Watt lamps as necessary. The plants were employed for testing when they reached the second or third true leaf stage.
(§3) Treatments consisted of the acids or esters of compounds 1-10 and cloquintocet-mexyl (CQC-M), fenchlorazole-ethyl, mefenpyr-diethyl alone and in combination. Weighed amounts of acid or methyl esters of the compounds of formula (I) were dissolved in a volume of 97:3 v/v acetone/dimethylsulfoxide (DMSO) to obtain concentrated solutions. […] The concentrated solutions of the test compound were diluted with the addition of an aqueous mixture containing acetone, water, isopropyl alcohol, DMSO, Agri-Dex crop oil concentrate, and Triton® X-77 surfactant in a 64.7:26.0:6.7:2.0:0.7:0.01 v/v ratio. Test compounds were diluted to the appropriate application rate with a dilution solution which was prepared by mixing the appropriate volume of 97:3 v/v acetone/DMSO and the appropriate volume of an aqueous mixture containing acetone, water, isopropyl alcohol, DMSO, Agri-Dex crop oil concentrate, and Triton® X-77 surfactant in a 64.7:26.0:6.7:2.0:0.7:0.01 v/v ratio. Compound requirements are based upon a 12 mL application volume at a rate of 187 liters per hectare (L/ha). The concentrated solutions of the safener were prepared following the same procedure. Weighed amounts of safener were dissolved in a volume of 97:3 v/v acetone/DMSO to obtain concentrated safener solutions.
(§4) Spray solutions of the herbicide safener and test compound mixtures were prepared by adding the concentrated solutions to the appropriate amount of dilution solution to form 12 mL spray solution with active ingredients in combinations.
(§5) Formulated compounds were applied to the plant material with an overhead Mandel track sprayer equipped with 8002E nozzles calibrated to deliver 187 L/ha over an application area of 0.503 square meters (m^2) at a spray height of 18 inches (43 centimeters (cm)) above average plant canopy. Control plants were sprayed in the same manner with the solvent blank.
(§6) The treated plants and control plants were placed in a greenhouse as described above and watered by sub-irrigation to prevent wash-off of the test compounds. After 20-22 d, the condition of the test plants as compared with that of the control plants was determined visually and scored on a scale of 0 to 100 percent where 0 corresponds to no injury and 100 corresponds to complete kill.
(§7) Colby's equation was used to determine the herbicidal effects expected from the mixtures (Colby, S. R. Calculation of the synergistic and antagonistic response of herbicide combinations. Weeds 1967, 15, 20-22.).
(§8) The following equation was used to calculate the expected activity of mixtures containing two active ingredients, A and B: Expected=A+B−(A×B/100)
(§9) A=observed efficacy of active ingredient A at the same concentration as used in the mixture.
(§10) B=observed efficacy of active ingredient B at the same concentration as used in the mixture.

SASKR = test: Postemergence herbicidal activity, greenhouse, visual injury: SASKR; conditions: for SASKR Ob (visual injury): 20-22 d
Method: as §1, §2, §3, §4, §5, §6, §7, §8, §9, §10

[2] = test system: winter wheat (Triticum aestivum L; TRZAW); test: Postemergence herbicidal safening in cereal crops, greenhouse, visual injury: winter wheat; conditions: 20-22 d
Method: as §1, §2, §3, §4, §5, §6, §7, §8, §9, §10

[3] = test system: bird's-eye speedwell (Veronica persica L; VERPE); test: Postemergence herbicidal activity, greenhouse, visual injury: bird's-eye speedwell
Method: as §1, §2, §3, §4, §5, §6, §7, §8, §9, §10

[4] = test system: spring wheat (Triticum aestivum L; TRZAS); test: Postemergence herbicidal safening in cereal crops, greenhouse, visual injury: spring wheat
Method: as §1, §2, §3, §4, §5, §6, §7, §8, §9, §10

[5] = Compound 10 0, CQC-M 8.75 g ae/ha
[6] = Compound 10 0, CQC-M 17.5 g ae/ha
[7] = Compound 10 0, CQC-M 35 g ae/ha
[8] = Compound 10 0, CQC-M 70 g ae/ha
[9] = Compound 10 0, CQC-M 140 g ae/ha

CCCCCC(C)OC(=O)COc1ccc(Cl)c2cccnc12 (stereo not shown) [CQC-M, cloquintocet-mexyl, reference compound]
TRZDU Ob (visual injury) ([1]; safener alone 0.547 g/ha): 0% | TRZDU Ob (visual injury) ([1]; safener alone 2.1875 g/ha): 0% | TRZDU Ob (visual injury) ([1]; safener alone 8.75 g/ha): 0% | TRZDU Ob (visual injury) ([1]; safener alone 35 g/ha): 0% | TRZDU Ob (visual injury) ([1]; safener alone 70 g/ha): 15% | TRZDU Ob (visual injury) ([1]; safener alone 140 g/ha): 20% | SASKR Ob (Observed values, % control) (SASKR; [5]): 0% | SASKR Ob (Observed values, % control) (SASKR; [6]): 0% | SASKR Ob (Observed values, % control) (SASKR; [7]): 0% | SASKR Ob (Observed values, % control) (SASKR; [8]): 0% | SASKR Ob (Observed values, % control) (SASKR; [9]): 0% | SASKR Ob (visual injury) (SASKR; safener alone 70 g/ha): 0% | SASKR Ob (visual injury) (SASKR; safener alone 140 g/ha): 0% | TRZAW Ob (visual injury) ([2]; safener alone 0.547 g/ha): 0% | TRZAW Ob (visual injury) ([2]; safener alone 2.1875 g/ha): 0% | TRZAW Ob (visual injury) ([2]; safener alone 8.75 g/ha): 0% | TRZAW Ob (visual injury) ([2]; safener alone 35 g/ha): 0% | TRZAW Ob (visual injury) ([2]; safener alone 70 g/ha): 0% | TRZAW Ob (visual injury) ([2]; safener alone 140 g/ha): 0% | VERPE Ob (Observed values, % control) [3, 5]: 0% | VERPE Ob (Observed values, % control) [3, 6]: 0% | VERPE Ob (Observed values, % control) [3, 7]: 0% | VERPE Ob (Observed values, % control) [3, 8]: 0% | VERPE Ob (Observed values, % control) [3, 9]: 0% | VERPE Ob (visual injury) ([3]; safener alone 8.75 g/ha, 20-22 d): 0% | pest or weed control at 0.547 g/ha ([4]; Triticum aestivum, post-emergence, 480 h, safener alone 0.547 g/ha, 20-22 d, read-out: TRZAS Ob (visual injury)): 0% | pest or weed control at 2.1875 g/ha ([4]; Triticum aestivum, post-emergence, 480 h, safener alone 2.1875 g/ha, 20-22 d, read-out: TRZAS Ob (visual injury)): 0% | pest or weed control at 8.75 g/ha ([4]; Triticum aestivum, post-emergence, 480 h, safener alone 8.75 g/ha, 20-22 d, read-out: TRZAS Ob (visual injury)): 0% | pest or weed control at 35 g/ha ([4]; Triticum aestivum, post-emergence, 480 h, safener alone 35 g/ha, 20-22 d, read-out: TRZAS Ob (visual injury)): 0% | pest or weed control at 140 g/ha ([4]; Triticum aestivum, post-emergence, 480 h, safener alone 140 g/ha, 20-22 d, read-out: TRZAS Ob (visual injury)): 0% | TRZAS Ob (Observed values, % control) ([4]; in vivo): 0%

— patent US9408387B2, “Safening 6-amino-2-(substituted phenyl)-5-substituted-4-pyrimidinecarboxylate herbicide injury on cereal crops” (Dow AgroSciences LLC, priority 2009, dated 2016)
